The source of these data is patent US20110319411A1, “ISOINDOLINONE AND RELATED ANALOGS AS SIRTUIN MODULATORS” (Sirtis Pharmaceuticals, Inc., priority 2008, published 2011).

The target in the assay is T1, SIRT1 (Homo sapiens, UniProt Q96EB6).
T1 construct: made in house; host or cells: E. coli BL21(DE3)
T1 sequence (Q96EB6 1-747): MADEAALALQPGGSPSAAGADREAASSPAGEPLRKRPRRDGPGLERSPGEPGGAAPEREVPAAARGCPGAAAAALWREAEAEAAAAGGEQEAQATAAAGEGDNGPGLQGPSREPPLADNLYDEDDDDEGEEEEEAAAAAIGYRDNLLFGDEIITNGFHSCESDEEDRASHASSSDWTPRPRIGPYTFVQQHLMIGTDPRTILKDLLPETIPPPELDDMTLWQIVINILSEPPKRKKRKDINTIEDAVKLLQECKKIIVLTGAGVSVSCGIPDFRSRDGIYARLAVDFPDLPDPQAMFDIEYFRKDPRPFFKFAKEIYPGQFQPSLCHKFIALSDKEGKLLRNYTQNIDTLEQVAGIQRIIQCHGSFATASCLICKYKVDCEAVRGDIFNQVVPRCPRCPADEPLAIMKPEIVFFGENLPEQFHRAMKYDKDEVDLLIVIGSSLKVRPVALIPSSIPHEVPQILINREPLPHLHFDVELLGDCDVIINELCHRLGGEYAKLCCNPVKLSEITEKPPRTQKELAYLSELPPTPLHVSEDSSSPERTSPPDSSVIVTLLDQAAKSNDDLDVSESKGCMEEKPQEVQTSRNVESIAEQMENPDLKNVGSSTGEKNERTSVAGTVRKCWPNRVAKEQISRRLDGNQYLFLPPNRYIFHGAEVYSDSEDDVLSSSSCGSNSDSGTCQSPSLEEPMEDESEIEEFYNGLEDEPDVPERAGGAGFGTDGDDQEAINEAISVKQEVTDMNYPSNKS
The assay is described as follows: mass spectrometry based assay to identify modulators of SIRT1 activity. The class given is biochemical. The note with it: 10 nM SIRT1, 0.5 μM peptide substrate, 120 μM βNAD+, 25 minutes at 25° C.; for Emax: 25 min, read-out: % FOLD ACT. (percent maximum fold activation). From the text: A mass spectrometry based assay was used to identify modulators of SIRT1 activity. The mass spectrometry based assay utilizes a peptide having 20 amino acid residues as follows: Ac-EE-K(biotin)-GQSTSSHSK(Ac)NleSTEG-K(5TMR)-EE-NH2 (SEQ ID NO: 1) wherein K(Ac) is an acetylated lysine residue and Nle is a norleucine. The peptide is labeled with the fluorophore 5TMR (excitation 540 nm/emission 580 nm) at the C-terminus. The sequence of the peptide substrate is based on p53 with several modifications. In addition, the methionine residue naturally present in the sequence was replaced with the norleucine because the methionine may be susceptible to oxidation during synthesis and purification.
The mass spectrometry assay is conducted as follows: 0.5 μM peptide substrate and 120 μM βNAD^+ is incubated with 10 nM SIRT1 for 25 minutes at 25° C. in a reaction buffer (50 mM Tris-acetate pH 8, 137 mM NaCl, 2.7 mM KCl, 1 mM MgCl2, 5 mM DTT, 0.05% BSA). Test compounds may be added to the reaction as described above. The SirT1 gene is cloned into a T7-promoter containing vector and transformed into BL21(DE3). After the 25 minute incubation with SIRT1, 10 μL of 10% formic acid is added to stop the reaction. Reactions are sealed and frozen for later mass spec analysis. Determination of the mass of the substrate peptide allows for precise determination of the degree of acetylation (i.e. starting material) as compared to deacetylated peptide (product).
A control for inhibition of sirtuin activity is conducted by adding 1 μL of 500 mM nicotinamide as a negative control at the start of the reaction (e.g., permits determination of maximum sirtuin inhibition). A control for activation of sirtuin activity is conducted using 10 nM of sirtuin protein, with 1 μL of DMSO in place of compound, to determine the amount of deacetylation of the substrate at a given timepoint within the linear range of the assay. This timepoint is the same as that used for test compounds and, within the linear range, the endpoint represents a change in velocity.
For the above assay, SIRT1 protein was expressed and purified as follows. The SirT1 gene was cloned into a T7-promoter containing vector and transformed into BL21(DE3). The protein was expressed by induction with 1 mM IPTG as an N-terminal His-tag fusion protein at 18° C. overnight and harvested at 30,000×g. Cells were lysed with lysozyme in lysis buffer (50 mM Tris-HCl, 2 mM Tris[2-carboxyethyl]phosphine (TCEP), 10 μM ZnCl2, 200 mM NaCl) and further treated with sonication for 10 min for complete lysis. The protein was purified over a Ni-NTA column (Amersham) and fractions containing pure protein were pooled, concentrated and run over a sizing column (Sephadex S200 26/60 global). The peak containing soluble protein was collected and run on an Ion-exchange column (MonoQ). Gradient elution (200 mM-500 mM NaCl) yielded pure protein. This protein was concentrated and dialyzed against dialysis buffer (20 mM Tris-HCl, 2 mM TCEP) overnight. The protein was aliquoted and frozen at −80° C. until further use.
Sirtuin modulating compounds that activated SIRT1 were identified using the assay described above and are shown below in Table 1. The EC1.5 values represent the concentration of test compounds that result in 150% activation of SIRT1. The EC1.5 values for the activating compounds are represented by A (EC1.5<10 μM), B (EC1-5 10-25 μM), C (EC1.5>25 μM). The percent maximum fold activation is represented by A (Fold activation >200%) or B (Fold Activation <200%).

The structures appear in SMILES notation.

In the case of `O=C(Nc1cccc2c1C(=O)N(c1cccc(C(F)(F)F)c1)C2)c1cncs1` [Compound 128], the “EC1.5 (concentration of test compound that results in 150% activation of SIRT1)” value is reported as “C (EC1.5>25 μM)” and the Emax was less than 200%.
In the case of `O=C(Nc1cccc2c1C(=O)N(c1cccc(C(F)(F)F)c1)C2)c1cccc(OCC(O)CO)n1` (stereo not shown) [Compound 129, 6-(2,3-dihydroxypropoxy)-N-(3-oxo-2-(3-(trifluoromethyl)phenyl)isoindolin-4-yl)picolinamide], the “EC1.5 (concentration of test compound that results in 150% activation of SIRT1)” value is recorded as “C (EC1.5>25 μM)” and the Emax was less than 200%.
The like results for `O=C(Nc1cccc2c1C(=O)N(c1cccc(C(F)(F)F)c1)C2)c1cccc(CN2CCOCC2)n1` [Compound 130, 6-(morpholinomethyl)-N-(3-oxo-2-(3-(trifluoromethyl)phenyl)isoindolin-4-yl)picolinamide] were, in that order, “A (EC1.5<10 μM)” and less than 200%.
In the same order, the values of `O=C(Nc1cccc2c1C(=O)N(c1cccc(OC(F)(F)F)c1)C2)c1cccc(OCC(O)CO)n1` (stereo not shown) [Compound 131] are “C (EC1.5>25 μM)” and less than 200%.
For `O=C(Nc1cccc2c1C(=O)N(c1cccc(OC(F)(F)F)c1)C2)c1cccc(CN2CCOCC2)n1` [Compound 132], the “EC1.5 (concentration of test compound that results in 150% activation of SIRT1)” value is given as “A (EC1.5<10 μM)” and the Emax is less than 200%.
As to `O=C(Nc1cccc2c1C(=O)N(c1cccc(C(F)(F)F)c1)C2)c1nccs1` [Compound 133], the “EC1.5 (concentration of test compound that results in 150% activation of SIRT1)” value was “C (EC1.5>25 μM)” and the Emax is less than 200%.
In the same order, the values of `O=C(Nc1cccc2c1C(=O)N(c1cccc(C(F)(F)F)c1)C2)c1cccnn1` [Compound 134] are “C (EC1.5>25 μM)” and less than 200%.
Turning to `O=C(Nc1cccc2c1C(=O)N(c1cccc(C(F)(F)F)c1)C2)c1cccc(N2CCOCC2)n1` [Compound 135], the “EC1.5 (concentration of test compound that results in 150% activation of SIRT1)” value is on record as “C (EC1.5>25 μM)” and the Emax was less than 200%.
On to `O=C(Nc1cccc2c1C(=O)N(c1cccc(C(F)(F)F)c1)C2)c1cccc(N2CCCC2)n1` [Compound 136], for which the “EC1.5 (concentration of test compound that results in 150% activation of SIRT1)” value is given as “C (EC1.5>25 μM)” and the Emax was less than 200%.
For `O=C(Nc1cccc2c1C(=O)N(c1cccc(C(F)(F)F)c1)C2)c1cncc(N2CCOCC2)n1` [Compound 137], the “EC1.5 (concentration of test compound that results in 150% activation of SIRT1)” value is recorded as “C (EC1.5>25 μM)” and the Emax was less than 200%.
Regarding `O=C(Nc1cccc2c1C(=O)N(c1cccc(C(F)(F)F)c1)C2)c1cccc(C2CCNC2)c1` (stereo not shown) [Compound 138], the “EC1.5 (concentration of test compound that results in 150% activation of SIRT1)” value was “A (EC1.5<10 μM)” and the Emax is greater than 200%.
